Data on 5 compounds can be found in US8754068B2, “Modified C-3 betulinic acid derivatives as HIV maturation inhibitors” (priority 2010, dated 2014).

pEC50: −log10 of the molar value.

In this test the test system is recombinant NL4-3 virus (Renilla luciferase in nef, Gag P373S). Put plainly: HIV cell culture assay (luciferase reporter virus in MT-2 cells). Format: cell-based. To be noted: NL43. Summed up: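 Activity was read as luciferase output (Dual Luciferase reagents premixed with lysis solution) after 4–5 days of infection in serially diluted inhibitor. Host cells were MT-2 in 10% FBS RPMI. The reporter virus came from transfected 293T cells and was titered on MT-2.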
On the technique in general: In a reporter assay the amount or activity of a reporter protein is the signal.
For `C=C(C)[C@@H]1CC[C@]2(CO)CC[C@]3(C)[C@H](CC[C@@H]4[C@@]5(C)CC=C(c6cc(C(=O)O)[nH]n6)C(C)(C)[C@@H]5CC[C@]43C)[C@@H]12` [Example 8, 3-((1R,3aS,5aR,5bR,7aR,11aS,11bR,13aR,13bR)-3a-(hydroxymethyl)-5a,5b,8,8,11a-pentamethyl-1-(prop-1-en-2-yl)-2,3,3a,4,5,5a,5b,6,7,7a,8,11,11a,11b,12,13,13a,13b-octadecahydro-1H-cyclopenta[a]chrysen-9-yl)-1H-pyrazole-5-carboxylic acid], the negative-log EC50 (pEC50) is over 6.00.

In the case of `C=C(C)[C@@H]1CC[C@]2(CO)CC[C@]3(C)[C@H](CC[C@@H]4[C@@]5(C)CC=C(c6cc(C(=O)O)no6)C(C)(C)[C@@H]5CC[C@]43C)[C@@H]12` [Example 9, 5-((1R,3aS,5aR,5bR,7aR,11aS,11bR,13aR,13bR)-3a-(hydroxymethyl)-5a,5b,8,8,11a-pentamethyl-1-(prop-1-en-2-yl)-2,3,3a,4,5,5a,5b,6,7,7a,8,11,11a,11b,12,13,13a,13b-octadecahydro-1H-cyclopenta[a]chrysen-9-yl)isoxazole-3-carboxylic acid], the pEC50 was over 6.00. Next, `CC(C)[C@@H]1CC[C@]2(CO)CC[C@]3(C)[C@H](CC[C@@H]4[C@@]5(C)CC=C(c6ccc(C(=O)O)cc6)C(C)(C)[C@@H]5CC[C@]43C)[C@@H]12` [Example 10, 4-((1S,3aS,5aR,5bR,7aR,11aS,11bR,13aR,13bR)-3a-(hydroxymethyl)-1-isopropyl-5a,5b,8,8,11a-pentamethyl-2,3,3a,4,5,5a,5b,6,7,7a,8,11,11a,11b,12,13,13a,13b-octadecahydro-1H-cyclopenta[a]chrysen-9-yl)benzoic acid]: over 6.00. Take `C[C@H]1[C@H](C)CC[C@]2(C(=O)O)CC[C@]3(C)C(=CC[C@@H]4[C@@]5(C)CC=C(c6ccc(C(=O)O)cc6)C(C)(C)[C@@H]5CC[C@]43C)[C@H]12` [Example 12, (1S,2R,4aS,6aS,6bR,8aR,12aS,12bR,14bS)-10-(4-carboxyphenyl)-1,2,6a,6b,9,9,12a-heptamethyl-1,2,3,4,4a,5,6,6a,6b,7,8,8a,9,12,12a,12b,13,14b-octadecahydropicene-4-a-carboxylic acid]: the negative-log EC50 (pEC50) was over 6.00. As for `CC1(C)CC[C@]2(C(=O)O)CC[C@]3(C)C(=CC[C@@H]4[C@@]5(C)CC=C(c6ccc(C(=O)O)cc6)C(C)(C)[C@@H]5CC[C@]43C)[C@@H]2C1` [Example 13, (4aS,6aS,6bR,8aR,12aS,12bR,14bS)-10-(4-carboxyphenyl)-2,2,6a,6b,9,9,12a-heptamethyl-1,2,3,4,4a,5,6,6a,6b,7,8,8a,9,12,12a,12b,13,14b-octadecahydropicene-4-a-carboxylic acid], the pEC50 is over 6.00.

By pEC50 is commonly meant −log10 of the EC50, conventionally taken in molar units.
